Laboratory results reported in patent publication US20170340636A1, “COMPOSITIONS AND METHODS FOR INHIBITION OF AUTOPHAGY” (Board of Regents, The University of Texas System, priority 2016, published 2017).

Experiments:
[1] = biological target: T1, TAOK2 (Rattus norvegicus, UniProt Q9JLS3); assay: Kinase-Glo high-throughput screen / re-screen of TAOK2 activity (MBP substrate); type: biochemical; details: estimate from HTS re-screen at 1, 3.3 and 10 μM
T1 construct: made in house
T1 sequence (Q9JLS3 1-320 limits assumed): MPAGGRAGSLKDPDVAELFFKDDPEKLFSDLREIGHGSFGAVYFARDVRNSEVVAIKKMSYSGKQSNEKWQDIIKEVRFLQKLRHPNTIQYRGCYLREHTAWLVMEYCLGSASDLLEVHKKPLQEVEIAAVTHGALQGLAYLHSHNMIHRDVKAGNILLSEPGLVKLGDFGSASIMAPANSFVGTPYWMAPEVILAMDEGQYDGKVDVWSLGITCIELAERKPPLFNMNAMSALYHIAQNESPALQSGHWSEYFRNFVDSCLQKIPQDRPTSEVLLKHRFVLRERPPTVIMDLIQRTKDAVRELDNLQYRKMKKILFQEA
Method: TAOK2 activity was screened in a high-throughput fashion using Kinase-Glo (Promega). A 20 μL, solution of 50 mM HEPES pH 7.4, 50 mM MgCl2, 1.27 mg/ml MBP and 0.005 mg/ml TAOK2 was added to each well of a 384 well Corning plate using a Biotek MultiFlo dispenser. 0.2 μl of compound (columns 3 to 22, 50 μM), DMSO negative control (columns 2, 23, and 24), or staurosporine positive control (column 1, 43.4 μM) were then added to each well with a Biomek Liquid handler. 10 μl of 50 μg/ml ATP solution was added to each well with a Labsystems Multidrop384. The plates were incubated at RT for 100 minutes. 20 μl Kinase Glo (Promega) was added to each well, and allowed to incubate for 10minutes under agitation. Luminescence was read on an Envision Multilabel plate reader.
After cherry picking primary hits, the selected compounds were assayed in a limited dose-response format (10, 3.3, and 1 μM) in triplicate using the primary enzymatic assay for TAOK2. The data for each assay well was normalized to the neutral controls. The normalized activity values (replicates) for each compound in each assay were then condensed to a single value (condensed activity) using the “Robust Condensing” method in Genedata Screener®. The condensed activity is the most representative single value of the triplicates. In general, the triplicates were pre-condensed into a pair of values as follows:
In order to study the relationship between TAOK2 and both cancer and autophagy, a high-throughput screen was performed using a 200,000 compound library to discover novel small-molecule kinase inhibitors (FIG. 1A-D). Phosphorylation reactions were performed in a 384 well format against the generic kinase substrate Myelin Basic Protein (MBP) with the addition of compound. Kinase-Glo (Promega) was then added to each well to detect remaining ATP concentration. Thus, inhibitory compounds would decrease TAOK2 activity, which would increase both remaining ATP concentration and luminescence in those wells.
After the initial screen, 1645 compounds were identified with inhibition greater than three σ above the mean DMSO control (FIG. 1A). The Z′ factor of the initial screen across all plates was 0.77, indicating high significance (FIG. 1B). These compounds were then re-screened in triplicate under the same conditions, with the compounds being assayed at three concentrations (1 μM, 3.3 μM, and 10 μM, FIG. 1C, D). 432 compounds were identified after the re-screen with average inhibitions greater than 10 sigma at the 10 μM concentration. The Z′ factor of the confirmation screen was 0.52, again indicating high significance.

[2] = biological target: T1, TAOK2; assay: Radiometric kinase assay; type: biochemical; details: determined radiometrically; MBP, γ-labeled ATP
Method: Radiometric activity assays of selected compounds against TAOK2 were conducted. A reaction solution of 0.02 mg/ml TAOK2, 50 mM MgCl2, 50 mM HEPES pH 7.5, 1 mg/ml MBP, and increasing compound concentration was made. The compound/DMSO solution was 5% by volume in the final reaction mixture. An ATP solution of 1:20 0.1 μCi/ml 32P -labeled ATP:1 mg/ml ATP was made. 10 μl of ATP solution was added to 50 μl of reaction solution, and allowed to react for 30 minutes. Reactions were stopped by blotting onto filter paper, then submerging in10% trifluoroacetic acid (TFA). Samples were washed 4 times in TFA, then put into scintillation vials. 5 ml Complete Counting Cocktail 3a70B (Research Products International Corp.) was added, and the vials were counted on a Beckman scintillation counter for 10 minutes.
Compounds SW034538 and SW083688 were both selective in the DSF measurements and effective in the GFP-LC3 degradation assays. These compounds were then chosen for radiometric analysis to determine their IC50 values (Table 1). TAOK2 was incubated with inhibitor, MBP, and γ-labeled ATP and allowed to react for 10 minutes. The concentrations of MBP and ATP were chosen such that the reaction was kept in the linear range for the duration of the experiment. […] IC50 value estimates were calculated from the results of the 200 k rescreen described above. […]

Row | IC50 [1] | IC50 [2] | SMILES
1 | 5 µM | – | CS(=O)(=O)c1ccc2nc(NC(=O)CCCOc3ccc(Cl)cc3)sc2c1 [SW172006]
2 | – | 1.3 µM | CCOCCCn1c(=S)[nH]c2cc(C(=O)NCC3COc4ccccc4O3)ccc2c1=O (stereo not drawn) [SW083688]
3 | – | 0.3 µM | CCC(=O)Nc1nc(C)c(-c2csc(Nc3cc(OC)ccc3OC)n2)s1 [SW034538]
